Experimental findings from paper PMC12751012, “Nanoscale Direct-to-Biology Optimization and Structural Insights into Selective S. aureus TrmD Inhibitors” (Journal of Medicinal Chemistry, 2025) are described below.

The assay addresses T1, S. aureus TrmD (Staphylococcus aureus, UniProt Q2FZ43).
T1 construct: made in house; host or cells: E. coli BL21
T1 sequence (Q2FZ43 1-245): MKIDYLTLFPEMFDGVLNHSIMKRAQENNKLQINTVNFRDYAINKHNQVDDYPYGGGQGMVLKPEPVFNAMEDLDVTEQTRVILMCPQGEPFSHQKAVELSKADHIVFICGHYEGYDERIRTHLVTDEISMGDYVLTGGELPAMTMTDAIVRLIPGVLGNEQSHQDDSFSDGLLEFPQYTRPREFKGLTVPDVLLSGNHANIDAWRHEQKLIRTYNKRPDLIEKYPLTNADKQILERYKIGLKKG
Nature of the assay: nanoSAR direct-to-biology FP displacement screening of crude triazoles. The class given is binding. Conditions: crude triazole at 1 μM, assuming full conversion, 500 nM TrmD, 10 nM tracer 4; for inhibition at 1 µM: read-out: % displaced tracer. In outline: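 Crude CuAAC triazoles from alkyne 7 and 320 diverse azides were screened by FP displacement of 10 nM tracer 4 from 500 nM S. aureus TrmD. Buffer was 40 mM Tris HCl, 100 mM NaCl, 10 mM MgCl2, 5% glycerol, pH 7.5.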

`O=c1[nH]cnc2[nH]cc(-c3cn([C@@H]4C[C@H]5CC[C@@H](C4)N5)nn3)c12` [Compound 01G10, O=C1NC=NC=2NC=C(C=3N=NN(C3)[C@@H]4C[C@@H]5[NH2+][C@H](C4)CC5)C12]: the inhibition at 1 µM was determined as 44%.
In the case of `O=C1CC[C@@H](Cn2cc(-c3c[nH]c4nc[nH]c(=O)c34)nn2)O1` [Compound 04E02, O=C1O[C@H](CN2N=NC(C=3C=4C(=O)NC=NC4NC3)=C2)CC1], the inhibition at 1 µM is 22%.
In the case of `O=c1[nH]cnc2[nH]cc(-c3cn(Cc4ccc(F)cc4)nn3)c12` [Compound 03E04, Fc1ccc(cc1)CN2N=NC(C=3C=4C(=O)NC=NC4NC3)=C2], the inhibition at 1 µM was determined as 85%.
With `COc1cccc(C2(n3cc(-c4c[nH]c5nc[nH]c(=O)c45)nn3)CCC2)c1` [Compound 01A12, O=C1NC=NC=2NC=C(C=3N=NN(C3)C4(c5cc(OC)ccc5)CCC4)C12], the inhibition at 1 µM came to 10%.
`Cc1nc(Cn2cc(-c3c[nH]c4nc[nH]c(=O)c34)nn2)cs1` [Compound 01F09, S1C(=NC(=C1)CN2N=NC(C=3C=4C(=O)NC=NC4NC3)=C2)C]: the inhibition at 1 µM worked out at 53%.
In the case of `COc1nc(OC)nc(-n2cc(-c3c[nH]c4nc[nH]c(=O)c34)nn2)n1` [Compound 03F05, O=C1NC=NC=2NC=C(C=3N=NN(c4nc(OC)nc(OC)n4)C3)C12], the inhibition at 1 µM turned out to be 33%.
With `O=c1[nH]cnc2[nH]cc(-c3cn([C@H]4C=CCCCC4)nn3)c12` [Compound 04B01, O=C1NC=NC=2NC=C(C=3N=NN(C3)[C@H]4C=CCCCC4)C12], the inhibition at 1 µM is 32%.
On the same count and under the same terms, the result for `Cc1ccc([C@@H](O)Cn2cc(-c3c[nH]c4nc[nH]c(=O)c34)nn2)cc1` [Compound 03D01, O=C1NC=NC=2NC=C(C=3N=NN(C3)C[C@H](O)c4ccc(cc4)C)C12] reads 65%; that for `NC(=O)[C@@H](c1ccc(F)cc1)n1cc(-c2c[nH]c3nc[nH]c(=O)c23)nn1` [Compound 03B07, Fc1ccc(cc1)[C@@H](N2N=NC(C=3C=4C(=O)NC=NC4NC3)=C2)C(=O)N], 16%; that for `CCc1nc(Cn2cc(-c3c[nH]c4nc[nH]c(=O)c34)nn2)cs1` [Compound 01E03, S1C(=NC(=C1)CN2N=NC(C=3C=4C(=O)NC=NC4NC3)=C2)CC], 75%.
With `O=C(Cn1cc(-c2c[nH]c3nc[nH]c(=O)c23)nn1)N1CCCCC1` [Compound 02F02, O=C1NC=NC=2NC=C(C=3N=NN(C3)CC(=O)N4CCCCC4)C12], the inhibition at 1 µM turned out to be 32%.
As for `COC(=O)[C@@H]1CCC[C@H](n2cc(-c3c[nH]c4nc[nH]c(=O)c34)nn2)C1` [Compound 01D01, O=C(OC)[C@H]1C[C@@H](N2N=NC(C=3C=4C(=O)NC=NC4NC3)=C2)CCC1], the inhibition at 1 µM was 33%.
As to `COc1ccnc(-n2cc(-c3c[nH]c4nc[nH]c(=O)c34)nn2)n1` [Compound 02A01, O=C1NC=NC=2NC=C(C=3N=NN(c4nc(OC)ccn4)C3)C12], the inhibition at 1 µM was determined as 19%.
With `O=c1[nH]cnc2[nH]cc(-c3cn(-c4cccc(F)c4)nn3)c12` [Compound 04H04, Fc1cc(N2N=NC(C=3C=4C(=O)NC=NC4NC3)=C2)ccc1], the inhibition at 1 µM was found to be 16%.
For the compound `O=C1c2ccccc2C(=O)N1CCn1cc(-c2c[nH]c3nc[nH]c(=O)c23)nn1` [Compound 01H05, O=C1N(C(=O)c2c1cccc2)CCN3N=NC(C=4C=5C(=O)NC=NC5NC4)=C3], the inhibition at 1 µM amounted to 13%.
As for `O=c1[nH]cnc2[nH]cc(-c3cn(CC4CCNCC4)nn3)c12` [Compound 02C09, O=C1NC=NC=2NC=C(C=3N=NN(C3)CC4CC[NH2+]CC4)C12], the inhibition at 1 µM turned out to be 79%.
Take `COC(=O)c1cccc2nc(Cn3cc(-c4c[nH]c5nc[nH]c(=O)c45)nn3)cn12` [Compound 03F06, O=C(OC)C=1N2C(=NC(=C2)CN3N=NC(C=4C=5C(=O)NC=NC5NC4)=C3)C=CC1]: the inhibition at 1 µM was 26%.
In the case of `O=c1[nH]cnc2[nH]cc(-c3cn([C@H]4CC5(CCCC5)Oc5ccc(Cl)cc54)nn3)c12` [Compound 02C05, Clc1cc2c(OC3(C[C@@H]2N4N=NC(C=5C=6C(=O)NC=NC6NC5)=C4)CCCC3)cc1], the inhibition at 1 µM is 55%.
Regarding `O=c1[nH]cnc2[nH]cc(-c3cn([C@@H]4CCc5cc(Cl)ccc54)nn3)c12` [Compound 01C03, Clc1cc2c(cc1)[C@H](N3N=NC(C=4C=5C(=O)NC=NC5NC4)=C3)CC2], the inhibition at 1 µM is 72%.
For the compound `O=c1[nH]cnc2[nH]cc(-c3cn(CCCN4CCCOCC4)nn3)c12` [Compound 02A10, O=C1NC=NC=2NC=C(C=3N=NN(C3)CCC[N@@H+]4CCOCCC4)C12], the inhibition at 1 µM is 23%.
As for `O=c1[nH]cnc2[nH]cc(-c3cn(-c4cc(F)cc(Cl)c4)nn3)c12` [Compound 01H10, Clc1cc(F)cc(N2N=NC(C=3C=4C(=O)NC=NC4NC3)=C2)c1], the inhibition at 1 µM came to 12%.
For the compound `O=c1[nH]cnc2[nH]cc(-c3cn(-c4ccc(CO)cc4)nn3)c12` [Compound 04B03, O=C1NC=NC=2NC=C(C=3N=NN(c4ccc(cc4)CO)C3)C12], the inhibition at 1 µM came to 47%.
As to `C[C@@H](CN)n1cc(-c2c[nH]c3nc[nH]c(=O)c23)nn1` [Compound 03H12, O=C1NC=NC2=C1C(C3=CN([C@H](CN)C)N=N3)=CN2], the “% displaced tracer” value is reported as 20%.
As for `NS(=O)(=O)c1ccccc1-n1cc(-c2c[nH]c3nc[nH]c(=O)c23)nn1` [Compound 01G01, S(=O)(=O)(N)c1c(N2N=NC(C=3C=4C(=O)NC=NC4NC3)=C2)cccc1], the inhibition at 1 µM was 42%.
Take `O=c1[nH]cnc2[nH]cc(-c3cn(C[C@H](O)C(F)(F)F)nn3)c12` [Compound 03D12, FC(F)(F)[C@@H](O)CN1N=NC(C=2C=3C(=O)NC=NC3NC2)=C1]: the inhibition at 1 µM was 71%.
Regarding `N#CCCCn1cc(-c2c[nH]c3nc[nH]c(=O)c23)nn1` [Compound 02E02, O=C1NC=NC=2NC=C(C=3N=NN(C3)CCCC#N)C12], the inhibition at 1 µM came out at 35%.
Turning to `O=c1[nH]cnc2[nH]cc(-c3cn([C@H]4CC5(CCC5)Oc5ccc(F)cc54)nn3)c12` [Compound 03B06, Fc1cc2c(OC3(C[C@@H]2N4N=NC(C=5C=6C(=O)NC=NC6NC5)=C4)CCC3)cc1], the inhibition at 1 µM is 70%.
In the case of `COC(=O)c1ccc(-n2cc(-c3c[nH]c4nc[nH]c(=O)c34)nn2)cc1` [Compound 03D08, O=C(OC)c1ccc(N2N=NC(C=3C=4C(=O)NC=NC4NC3)=C2)cc1], the inhibition at 1 µM was found to be 11%.
As for `COc1ccc(-n2cc(-c3c[nH]c4nc[nH]c(=O)c34)nn2)cc1` [Compound 02H08, O=C1NC=NC=2NC=C(C=3N=NN(c4ccc(OC)cc4)C3)C12], the inhibition at 1 µM amounted to 9%.
As to `O=c1[nH]cnc2[nH]cc(-c3cn(-c4ccc5c(c4)NCC5)nn3)c12` [Compound 03C06, O=C1NC=NC=2NC=C(C=3N=NN(c4cc5NCCc5cc4)C3)C12], the inhibition at 1 µM was determined as 25%.
Consider `O=c1[nH]cnc2[nH]cc(-c3cn(C[C@H]4C[C@@H]5C[C@@H]5C4)nn3)c12` [Compound 03A08, O=C1NC=NC=2NC=C(C=3N=NN(C3)C[C@@H]4C[C@@H]5[C@@H](C5)C4)C12], for which the inhibition at 1 µM is 76%.
On to `Cc1cc(F)ccc1[C@H](C)n1cc(-c2c[nH]c3nc[nH]c(=O)c23)nn1` [Compound 03F07, Fc1cc(c(cc1)[C@@H](N2N=NC(C=3C=4C(=O)NC=NC4NC3)=C2)C)C], for which the inhibition at 1 µM turned out to be 51%.
Regarding `Cn1ccc(-n2cc(-c3c[nH]c4nc[nH]c(=O)c34)nn2)n1` [Compound 03G05, O=C1NC=NC=2NC=C(C=3N=NN(C4=NN(C=C4)C)C3)C12], the inhibition at 1 µM is 25%.
